Source: patent publication US11957699B2, “Composition comprising punicalagin for inhibiting PAR2 activity” (INDUSTRY-ACADEMIC COOPERATION FOUNDATION, YONSEI UNIVERSITY, priority 2018, dated 2024)
pIC50: −log10 of the molar value.

What was measured:
[1] = system: NZB/W F1 mice with lupus nephritis; assay: Lupus nephritis mouse model (NZB/W F1); assay type: in vivo
Protocol: With NZB/W F1 mice that were purchased from Central Lab. Animal Inc., the effect of punicalagin on symptoms of lupus nephritis was confirmed.
As control groups, there were two groups including a nephritis-induced group that was injected only with physiological saline and a nephritis-induced group that was injected with 7 mg/kg methylprednisolone (MPL), which is a standard therapeutic agent for lupus nephritis, and proteinuria was measured twice a week (panel A of FIG. 9).
Next, the protective effect of punicalagin on renal structural damage against lupus nephritis was histologically evaluated. To this end, kidneys were extracted and PAS stained in 30-week-old mice, and the degree of damage to glomeruli, ducts, and blood vessels was histologically quantified. In addition, when lupus nephritis was induced, the expressions of IgG and C3, which are autoantibodies mostly expressed in kidney tissues, were fluorescence-stained and observed under a fluorescence microscope.
In order to determine the mechanism of the alleviating effect of punicalagin on lupus nephritis, the spleen was extracted from 30-week-old mice, the spleen weight and the number of splenocytes were measured, and changes in T cells in the spleen were analyzed by FACS.
After serum was isolated from 30-week-old mice, it was analyzed by the enzyme immunoassay to determine whether punicalagin inhibited or increased cytokines that were expressed by lupus nephritis.
In order to determine the alleviating effect of punicalagin on lupus nephritis, serum was isolated from 30-week-old mice, and the expression of B cell autoantibodies was analyzed by the enzyme immunoassay.
In order to determine the alleviation mechanism of punicalagin against lupus nephritis, the expressions of VCAM-1 and ICAM-1 were analyzed by immunohistochemical staining in renal tissues of 30-week-old mice.

[2] = system: C57BL6N mice with pruritus induced by PAR2-AP; assay: Pruritus induced by PAR2-AP in mice (number of scratches); assay type: in vivo; settings: for number of scratches during the initial 10 minutes: saline group 104; for number of scratches for 40 minutes: PAR2-AP group about 240
Protocol: In seven-week-old C57BL6N mice, it was confirmed whether punicalagin (PG) has an effect of alleviating pruritus symptoms induced by PAR2 receptor activation by PAR2-AP (activating peptide). In addition, the effects of punicalin (PNC) and ellagic acid (EA), which are metabolites of punicalagin and contained in pomegranate peel in a large amount, were also confirmed.
Specifically, each of 0, 1, 3, and 10 mg/kg punicalagin (n=4) was dissolved in physiological saline and intraperitoneally injected, and after 30 minutes, 100 μg of PAR2-AP was intradermally injected to induce pruritus. As control groups, a group which was intraperitoneally injected with physiological saline only (n=4) and a group which was intraperitoneally injected with 10 mg/kg punicalagin (n=4) were established, and the number of scratches was measured for 40 minutes.

PAR2 [3] = biological target: T1, PAR2 (Homo sapiens, UniProt P55085); assay: Cytokine secretion by PAR2-AP in primary cultured human conjunctival epithelial cells (ELISA); assay type: cell-based; set-up: endogenous in cells; settings: 10 μM, 100 μM PAR2-AP, 24 hours
T1 sequence (P55085 26-397): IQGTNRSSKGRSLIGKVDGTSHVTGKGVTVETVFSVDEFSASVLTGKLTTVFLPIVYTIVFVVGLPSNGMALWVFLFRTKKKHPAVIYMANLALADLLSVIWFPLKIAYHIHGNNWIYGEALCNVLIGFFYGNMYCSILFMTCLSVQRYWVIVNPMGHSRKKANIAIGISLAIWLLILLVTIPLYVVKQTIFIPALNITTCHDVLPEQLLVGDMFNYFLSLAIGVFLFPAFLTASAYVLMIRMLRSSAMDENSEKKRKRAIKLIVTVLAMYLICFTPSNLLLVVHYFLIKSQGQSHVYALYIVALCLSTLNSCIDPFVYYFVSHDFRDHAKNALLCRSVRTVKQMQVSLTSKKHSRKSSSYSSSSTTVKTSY
Protocol: In order to determine whether punicalagin inhibits cytokine secretion by PAR2 receptor activity, human conjunctival epithelial cells, which were primary cultured and differentiated in a transwell, were treated with 100 μM PAR2-AP or 10 μM punicalagin for 24 hours, and then, by collecting the culture medium from the apical membrane, cytokine concentrations were measured by the enzyme-linked immunosorbent assay.

PAR2 [4] = biological target: T1, PAR2; assay: Intracellular calcium increase by house dust mite extract and PAR2-AP in primary cultured conjunctival epithelial cells; assay type: cell-based; set-up: endogenous in cells; settings: 10 μM, 10 μg/mL HDM extract, 100 μM PAR2-AP
Protocol: In order to determine whether punicalagin has an effect of inhibiting cytokine secretion by house dust mites (HDM), after removing a culture medium of conjunctival epithelial cells that were primary cultured and differentiated in a transwell, 300 μL of the Flou4-NW dye mixture was added, and then, it was stabilized for 1 hour such that a Ca^2+ dye was loaded into the cells while blocking the light. Next, punicalagin was pretreated by concentration (0, 10, and 30 μM) for 10 minutes, and then, it was treated with a 10 μg/mL house dust mite extract (HDM extract). Afterwards, the concentration change of calcium ions (Ca^2+) was measured for 3 minutes at 1-second intervals, and 100 μM PAR2-AP was treated to measure whether punicalagin inhibited the concentration change of intracellular calcium ions by PAR2 receptor activation.

PAR2 [5] = biological target: T1, PAR2; assay: Intracellular calcium increase by trypsin (PAR2 receptor activation) in HaCaT keratinocytes; assay type: cell-based; set-up: endogenous in cells; host or cells: HaCaT keratinocytes
Protocol: After keratinocytes (HaCaT) were cultured for 48 hours in a 96-well micro plate with the DMEM culture medium, the culture medium was removed, and then, 100 μL of the Flou4-NW dye mixture was added. While blocking the light, it was stabilized for 1 hour such that a calcium ion dye (Ca^2+ dye) was loaded into the cells. 100 μM punicalagin was treated, and the concentration change of intracellular calcium ions was measured for 5 minutes (panel A of FIG. 17). Next, punicalin (0, 1, 3, 10, 20, 30, 100, and 300 μM) by concentration (panel B of FIG. 17) or punicalagin (0, 1, 3, 5, 10, 20, 30, and 100 μM) by concentration (panel C of FIG. 17) was treated for 10 minutes, and then, each well was treated with 0.1 μM trypsin to measure the concentration change of intracellular calcium ions according to PAR2 receptor activation.

[6] = 3 mg/kg, 1 mg/kg, and 0.3 mg/kg
[7] = 3 mg/kg, 1 mg/kg, and 0.3 mg/kg, similar to methylprednisolone

O=CC1OC(=O)c2cc(O)c(O)c(O)c2-c2c(cc(O)c(O)c2O)C(=O)OC1C1OC(=O)c2cc(O)c(O)c(O)c2-c2c(O)c(O)c3oc(=O)c4c(c(O)c(O)c5oc(=O)c2c3c54)-c2c(cc(O)c(O)c2O)C(=O)OCC1O (centres unmarked) [punicalagin, 1,2,3,11,12,13-hexahydroxy-5,10-dioxo-8-[3,4,5,11,17,18,19,22,23,34,35-undecahydroxy-8,14,26,31-tetraoxo-9,13,25,32-tetraoxaheptacyclo[25.8.0.0^2,7.0^15,20.0^21,30.0^24,29.0^28,33]pentatnaconta-1(35),2,4,6,15,17,19,21,23,27,29,33-dodecaen-10-yl]-5,7,8,10-tetrahydrodibenzo[f,h][1,4]dioxecin-7-carbaldehyde]
kidney weight ([1]; 1 mg/kg): reduced | serum expressions of anti-dsDNA, IgG1, IgG2a, IgG2b, and IgG3 ([1]; 1 mg/kg and 10 mg/kg): decreased | expression of regulatory T cells (Treg) ([1]; 3 mg/kg): significantly increased | number of CD4 T cells in the spleen and expressions of TH1, TH2, and TH17 T cells (FACS) ([1]; 3 mg/kg and 1 mg/kg): significantly reduced | lower proteinuria compared to the nephritis-induced group ([1]; 3 mg/kg and 1 mg/kg, at the level of 7 mg/kg methylprednisolone): 60% | serum creatinine concentration ([1]; 3 mg/kg group): lowest | degree of damage to glomeruli, ducts, and blood vessels (PAS staining) ([1]; 3 mg/kg, 1 mg/kg, and 0.1 mg/kg, 30-week-old mice, similar to methylprednisolone): alleviated | IgG and C3 depositions in kidney tissue (fluorescence) [1, 6]: significantly reduced | expressions of VCAM-1 and ICAM-1 in kidney tissues (immunohistochemical staining) [1, 6]: significantly reduced | serum expressions of IL-10 and TGF-β1 [1, 6]: increased | total number of splenocytes [1, 6]: not increased | serum expressions of IFN-γ, IL-17A, and IL-6 [1, 7]: reduced | weight of the spleen [1, 7]: not increased | mortality from 23 weeks to 30 weeks ([1]; 3, 1 and 0.3 mg/kg intraperitoneally three times a week): none of the subjects died | serum creatinine concentration vs nephritis-induced group ([1]; punicalagin-treated groups (3, 1, 0.3 mg/kg)): lower | number of scratches during the initial 10 minutes ([2]; 1 mg/kg intraperitoneally, 100 μg PAR2-AP intradermally): about 59 times | number of scratches for 40 minutes ([2]; 1 mg/kg): about 188 times | number of scratches during the initial 10 minutes ([2]; 3 mg/kg intraperitoneally): ~28 times | number of scratches for 40 minutes ([2]; 3 mg/kg): ~103 times | number of scratches during the initial 10 minutes ([2]; 10 mg/kg intraperitoneally): ~14 times | number of scratches for 40 minutes ([2]; 10 mg/kg): ~40 times | inhibition of GMCSF induced by PAR2-AP (PAR2 [3]): 66.8% | inhibition of interleukin-6 (IL-6) induced by PAR2-AP (PAR2 [3]): 59.5% | inhibition of interleukin-8 (IL-8) induced by PAR2-AP (PAR2 [3]): 61.6% | concentration increases of intracellular calcium ions by house dust mites and PAR2-AP (PAR2 [4]): all inhibited | effect on the concentration of intracellular calcium ions in keratinocytes (without trypsin) (PAR2 [5]; 100 μM, 5 minutes): no effect | inhibition of PAR2 receptor activity by trypsin (PAR2 [5]; HaCaT, 0.1 μM trypsin, 10 minutes pretreatment): inhibited PAR2 receptor activity by trypsin in a concentration-dependent manner | pIC50 (PAR2 [5]; HaCaT, 0.1 μM trypsin, read-out: IC50, inhibition of the PAR2 receptor (calcium increase by trypsin)): 5.28 | strength of PAR2 receptor inhibition compared to punicalin (PAR2 [5]; HaCaT, trypsin): ≥ 3.7 times
